Test results taken from PubChem BioAssay AID330 (DTP/NCI, 2004).
Where “and” joins values, the source holds several entries; their conditions need not be identical. Identical values can stand only once. Inconclusive results and toxic doses are left out.

Test system: P388 leukemia ip, CD2F1 mice, survival T/C
Assay: NCI In Vivo Anticancer Drug Screen. Data for tumor model P388 Leukemia (intraperitoneal) in CD2F1 (CDF1) mice
Settings: endpoint: median survival time, higher = longer survival
Method in brief: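 Mice carrying the transplanted tumor received test compound or vehicle. Survival was recorded in each group, and the value is the treated-group measurement divided by that of the vehicle-treated control group.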

[1] = dose: 60.0 mg/kg/injection, schedule: Q01DX005 (ip), vehicle: saline with Tween-80
[2] = dose: 120.0 mg/kg/injection, schedule: Q01DX005 (ip), vehicle: saline with Tween-80
[3] = dose: 240.0 mg/kg/injection, schedule: Q01DX005 (ip), vehicle: saline with Tween-80
[4] = dose: 200.0 mg/kg/injection, schedule: Q01DX001 (ip), vehicle: Klucel (hydroxypropylcellulose) (HPC)
[5] = dose: 6.25 mg/kg/injection, schedule: Q01DX005 (ip), vehicle: saline with Tween-80
[6] = dose: 12.5 mg/kg/injection, schedule: Q01DX005 (ip), vehicle: saline with Tween-80
[7] = dose: 25.0 mg/kg/injection, schedule: Q01DX005 (ip), vehicle: saline with Tween-80
[8] = dose: 100.0 mg/kg/injection, schedule: Q01DX005 (ip), vehicle: saline with Tween-80
[9] = dose: 200.0 mg/kg/injection, schedule: Q01DX005 (ip), vehicle: saline with Tween-80

For `COc1ccc2c(c1OC)C(=O)O[C@@H]2[C@H]1c2cc3c(cc2CCN1C)OCO3`, the T/C (dose: 10.0 mg/kg/injection, schedule: Q01DX009 (ip), vehicle: saline) was 108 % of control, the T/C (dose: 20.0 mg/kg/injection, schedule: Q01DX009 (ip), vehicle: saline) was 114 % of control and the T/C (dose: 40.0 mg/kg/injection, schedule: Q01DX009 (ip), vehicle: saline) was 108 % of control. For the same molecule, the T/C (dose: 80.0 mg/kg/injection, schedule: Q01DX009 (ip), vehicle: saline) was 99 % of control.

In the case of `O=C1NCCCC1(Cl)Cl`, the T/C (dose: 12.5 mg/kg/injection, schedule: Q01DX009 (ip), vehicle: Klucel (hydroxypropylcellulose) (HPC)) is reported as 100 % of control, the T/C (dose: 25.0 mg/kg/injection, schedule: Q01DX009 (ip), vehicle: Klucel (hydroxypropylcellulose) (HPC)) is reported as 104 % of control and the T/C (dose: 50.0 mg/kg/injection, schedule: Q01DX009 (ip), vehicle: Klucel (hydroxypropylcellulose) (HPC)) is reported as 94 % of control.

In the case of `CCCCCCCCC1CCC(=O)NC1=O` (stereo not drawn), the T/C [1] is reported as 112 % of control, the T/C [2] is reported as 104 % of control and the T/C [3] is reported as 93 % of control.

In the case of `Cc1ccc(S(=O)(=O)NN=C2C(C)C(c3ccccc3)NC(c3ccccc3)C2C)cc1` (stereo not drawn), the T/C [4] is reported as 88 % of control.

`CC(=O)OCc1ccc(Cl)c(Cl)c1` was tested, and the T/C (dose: 100.0 mg/kg/injection, schedule: Q04DX003 (ip), vehicle: saline with Tween-80) was 100 % of control, the T/C (dose: 200.0 mg/kg/injection, schedule: Q04DX003 (ip), vehicle: saline with Tween-80) was 100 % of control and the T/C (dose: 400.0 mg/kg/injection, schedule: Q04DX003 (ip), vehicle: saline with Tween-80) was 104 % of control.

In the case of `O=C1CC(c2ccc(Cl)cc2Cl)Oc2ccc(Cl)cc21` (stereo not drawn), the T/C (dose: 6.25 mg/kg/injection, schedule: Q01DX009 (ip), vehicle: saline with Tween-80) is reported as 95 % of control, the T/C (dose: 12.5 mg/kg/injection, schedule: Q01DX009 (ip), vehicle: saline with Tween-80) is reported as 96 % of control and the T/C (dose: 25.0 mg/kg/injection, schedule: Q01DX009 (ip), vehicle: saline with Tween-80) is reported as 95 % of control. For the same molecule, the T/C (dose: 50.0 mg/kg/injection, schedule: Q01DX009 (ip), vehicle: saline with Tween-80) was 89 % of control, the T/C (dose: 100.0 mg/kg/injection, schedule: Q01DX009 (ip), vehicle: saline with Tween-80) was 87 % of control and 90 % of control and the T/C (dose: 200.0 mg/kg/injection, schedule: Q01DX009 (ip), vehicle: saline with Tween-80) was 90 % of control. For the same molecule, the T/C (dose: 400.0 mg/kg/injection, schedule: Q01DX009 (ip), vehicle: saline with Tween-80) was 96 % of control.

In the case of `CCn1c2ccccc2c2cc(NC(=S)NC(=O)c3cccs3)ccc21`, the T/C [5] is reported as 93 % of control, the T/C [6] is reported as 86 % of control and the T/C [7] is reported as 93 % of control. The T/C [8] was 90 % of control and the T/C [9] was 92 % of control.

In the case of `O=c1cc(-c2ccccc2)[nH]c(=S)[nH]1`, the T/C (dose: 50.0 mg/kg/injection, schedule: Q01DX001 (ip), vehicle: Klucel (hydroxypropylcellulose) (HPC)) is reported as 103 % of control, the T/C (dose: 100.0 mg/kg/injection, schedule: Q01DX001 (ip), vehicle: Klucel (hydroxypropylcellulose) (HPC)) is reported as 100 % of control and the T/C [4] is reported as 99 % of control. For the same molecule, the T/C (dose: 400.0 mg/kg/injection, schedule: Q01DX001 (ip), vehicle: Klucel (hydroxypropylcellulose) (HPC)) was 106 % of control.

`CC1=NNC(=O)C1N=Nc1c(C)n(C)n(-c2ccccc2)c1=O` (stereo not drawn) was tested, and the T/C (dose: 50.0 mg/kg/injection, schedule: Q01DX005 (ip), vehicle: saline with Tween-80) was 100 % of control, the T/C [8] was 99 % of control and the T/C [9] was 100 % of control.

In the case of `CC1(C)NC(=O)c2cccnc2S1`, the T/C [1] is reported as 89 % of control, the T/C [2] is reported as 97 % of control and the T/C [3] is reported as 99 % of control.

With `O=c1[nH]c2cc(Cl)ccc2n1C1CCN(CCCC(c2ccc(F)cc2)c2ccc(F)cc2)CC1` the T/C [5] was 106 % of control, the T/C [6] was 110 % of control and the T/C [7] was 110 % of control.

`COc1cccc2c1C(=O)C(C1CO1)=CC2=O` (stereo not drawn) was tested, and the T/C (dose: 12.5 mg/kg/injection, schedule: Q01DX001 (ip), vehicle: Klucel (hydroxypropylcellulose) (HPC)) was 88 % of control and the T/C (dose: 25.0 mg/kg/injection, schedule: Q01DX001 (ip), vehicle: Klucel (hydroxypropylcellulose) (HPC)) was 95 % of control.

In the case of `CCOCC(=O)N[C@H]1CCc2cc(OC)c(OC)c(OC)c2-c2ccc(SC)c(=O)cc21`, the T/C (dose: 0.75 mg/kg/injection, schedule: Q01DX009 (ip), vehicle: Klucel (hydroxypropylcellulose) (HPC)) is reported as 158 % of control and 161 % of control and the T/C (dose: 1.5 mg/kg/injection, schedule: Q01DX009 (ip), vehicle: Klucel (hydroxypropylcellulose) (HPC)) is reported as 193 % of control and 229 % of control.
